In US6737383B1, “Herbicidal oxadiazolidines” (priority 1999, dated 2004):

Experiments:
surinam grass = test: Test B pre/postemergence surinam grass; type: in vivo, Brachiaria decumbens
How it was run: (§1)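 Response is a visual 0-to-10 score relative to untreated plants, where 0 means no effect and 10 means complete control, taken twelve to sixteen days after application. Treatments went onto soil at planting and onto foliage of 1- to 4-leaf plants, using a surfactant-containing non-phytotoxic solvent.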

bedstraw = test: Test B pre/postemergence bedstraw; type: in vivo, Galium aparine
How it was run: as §1

corn = test: Test B pre/postemergence corn; type: in vivo, Zea mays
How it was run: as §1

wild oat = test: Test B pre/postemergence wild oat; type: in vivo, Avena fatua
How it was run: as §1

crabgrass = test: Test B pre/postemergence crabgrass; type: in vivo, Digitaria sanguinalis
How it was run: as §1

wheat = test: Test B pre/postemergence wheat; type: in vivo, Triticum aestivum
How it was run: as §1

giant foxtail = test: Test B pre/postemergence giant foxtail; type: in vivo, Setaria faberii
How it was run: as §1

purple nutsedge = test: Test B pre/postemergence purple nutsedge; type: in vivo, Cyperus rotundus
How it was run: as §1

cocklebur = test: Test B pre/postemergence cocklebur; type: in vivo, Xanthium strumarium
How it was run: as §1

rape = test: Test B pre/postemergence rape; type: in vivo, Brassica napus
How it was run: as §1

velvetleaf = test: Test B pre/postemergence velvetleaf; type: in vivo, Abutilon theophrasti
How it was run: as §1

sugar beet = test: Test B pre/postemergence sugar beet; type: in vivo, Beta vulgaris
How it was run: as §1

soybean = test: Test B pre/postemergence soybean; type: in vivo, Glycine max
How it was run: as §1

blackgrass = test: Test B pre/postemergence blackgrass; type: in vivo, Alopecurus myosuroides
How it was run: as §1

morningglory = test: Test B pre/postemergence morningglory; type: in vivo, Ipomoea hederacea
How it was run: as §1

pigweed = test: Test B pre/postemergence pigweed; type: in vivo, Amaranthus retroflexus
How it was run: as §1

[1] = Preemergence, Rate 62 g/ha, scale of 0 to 10 where 0 is no effect and 10 is complete control
[2] = Preemergence, Rate 125 g/ha, 0 is no effect, 10 is complete control
[3] = Preemergence, Rate 250 g/ha, scale 0 to 10, 0 is no effect, 10 is complete control
[4] = Preemergence, Rate 500 g/ha, scale 0 to 10 (0 no effect, 10 complete control)
[5] = Rate 62 g/ha, Postemergence, scale of 0 to 10 where 0 is no effect and 10 is complete control
[6] = Rate 125 g/ha, Postemergence, scale 0 to 10
[7] = Rate 500 g/ha, Postemergence, scale 0 to 10

CC(C)N(C(=O)n1oc(=O)n(CC2CO2)c1=O)c1ccc(F)cc1 (centres unmarked) [Compound 188]
B. signalgrass plant response rating (surinam grass; [1]): 0 | B. signalgrass plant response rating (0 to 10 scale) (surinam grass; [2]): 0 | B. signalgrass plant response rating (surinam grass; [3]): 6 | B. signalgrass plant response rating (surinam grass; [4]): 7 | B. signalgrass plant response rating (surinam grass; [5]): 0 | B. signalgrass plant response rating (surinam grass; Rate 125 g/ha, Postemergence, scale 0 (no effect) to 10 (complete control)): 0 | Plant response rating, B. signalgrass (surinam grass; Rate 250 g/ha, Postemergence, scale 0 to 10, 0 is no effect, 10 is complete control): 0 | B. signalgrass plant response rating (surinam grass; Rate 500 g/ha, Postemergence, scale 0 to 10, 0 no effect, 10 complete control): 0 | Bedstraw plant response rating (bedstraw; [1]): 0 | Bedstraw plant response rating (0 to 10 scale) (bedstraw; [2]): 0 | Bedstraw plant response rating (bedstraw; [3]): 0 | Bedstraw plant response rating (bedstraw; [4]): 0 | Bedstraw plant response rating (bedstraw; [5]): 0 | Bedstraw plant response rating (bedstraw; [6]): 0 | Plant response rating (0 to 10; 0 is no effect, 10 is complete control), Bedstraw (bedstraw; Rate 250 g/ha, Postemergence): 3 | Bedstraw plant response rating (bedstraw; [7]): 5 | Corn plant response rating (corn; [1]): 0 | Corn plant response rating (0 to 10 scale) (corn; [2]): 0 | Corn plant response rating (corn; [3]): 0 | Corn plant response rating (corn; [4]): 0 | Corn plant response rating (corn; [5]): 0 | Corn plant response rating (corn; [6]): 0 | Plant response rating (0 to 10; 0 is no effect, 10 is complete control), Corn (corn; Rate 250 g/ha, Postemergence): 0 | Corn plant response rating (corn; [7]): 0 | Wild oats plant response rating (wild oat; [1]): 0 | Wild oats plant response rating (wild oat; [3]): 0 | Wild oats plant response rating (wild oat; [4]): 0 | Wild oats plant response rating (wild oat; [5]): 0 | Wild oats plant response rating (wild oat; [6]): 0 | Plant response rating (0 to 10; 0 is no effect, 10 is complete control), Wild oats (wild oat; Rate 250 g/ha, Postemergence): 0 | Crabgrass plant response rating (crabgrass; [1]): 0 | Crabgrass plant response rating (0 to 10 scale) (crabgrass; [2]): 0 | Crabgrass plant response rating (crabgrass; [3]): 0 | Crabgrass plant response rating (crabgrass; [4]): 0 | Crabgrass plant response rating (crabgrass; [5]): 0 | Crabgrass plant response rating (crabgrass; [6]): 0 | Plant response rating (0 to 10; 0 is no effect, 10 is complete control), Crabgrass (crabgrass; Rate 250 g/ha, Postemergence): 3 | Crabgrass plant response rating (crabgrass; [7]): 3 | Wheat plant response rating (wheat; [1]): 0 | Wheat plant response rating (wheat; [3]): 0 | Wheat plant response rating (wheat; [4]): 0 | Wheat plant response rating (wheat; [5]): 0 | Wheat plant response rating (wheat; [6]): 0 | Plant response rating (0 to 10; 0 is no effect, 10 is complete control), Wheat (wheat; Rate 250 g/ha, Postemergence): 0 | Giant foxtail plant response rating (giant foxtail; [1]): 0 | Giant foxtail plant response rating (0 to 10 scale) (giant foxtail; [2]): 2 | Giant foxtail plant response rating (giant foxtail; [3]): 4 | Giant foxtail plant response rating (giant foxtail; [4]): 7 | Giant foxtail plant response rating (giant foxtail; [5]): 0 | Giant foxtail plant response rating (giant foxtail; [6]): 0 | Plant response rating (0 to 10; 0 is no effect, 10 is complete control), Giant foxtail (giant foxtail; Rate 250 g/ha, Postemergence): 2 | Giant foxtail plant response rating (giant foxtail; [7]): 4 | Nutsedge plant response rating (purple nutsedge; [1]): 0 | Nutsedge plant response rating (0 to 10 scale) (purple nutsedge; [2]): 0 | Nutsedge plant response rating (purple nutsedge; [3]): 0 | Nutsedge plant response rating (purple nutsedge; [4]): 0 | Nutsedge plant response rating (purple nutsedge; [5]): 0 | Nutsedge plant response rating (purple nutsedge; [6]): 0 | Plant response rating (0 to 10; 0 is no effect, 10 is complete control), Nutsedge (purple nutsedge; Rate 250 g/ha, Postemergence): 0 | Nutsedge plant response rating (purple nutsedge; [7]): 0 | Cocklebur plant response rating (cocklebur; [1]): 0 | Cocklebur plant response rating (0 to 10 scale) (cocklebur; [2]): 0 | Cocklebur plant response rating (cocklebur; [3]): 0 | Cocklebur plant response rating (cocklebur; [4]): 0 | Cocklebur plant response rating (cocklebur; [5]): 0 | Cocklebur plant response rating (cocklebur; [6]): 0 | Plant response rating (0 to 10; 0 is no effect, 10 is complete control), Cocklebur (cocklebur; Rate 250 g/ha, Postemergence): 0 | Cocklebur plant response rating (cocklebur; [7]): 0 | Rape plant response rating (rape; [1]): 0 | Rape plant response rating (0 to 10 scale) (rape; [2]): 0 | Rape plant response rating (rape; [3]): 0 | Rape plant response rating (rape; [4]): 0 | Rape plant response rating (rape; [5]): 0 | Rape plant response rating (rape; [6]): 0 | Plant response rating (0 to 10; 0 is no effect, 10 is complete control), Rape (rape; Rate 250 g/ha, Postemergence): 0 | Rape plant response rating (rape; [7]): 0 | Velvetleaf plant response rating (velvetleaf; [1]): 0 | Velvetleaf plant response rating (velvetleaf; [3]): 0 | Velvetleaf plant response rating (velvetleaf; [4]): 2 | Velvetleaf plant response rating (velvetleaf; [5]): 0 | Velvetleaf plant response rating (velvetleaf; [6]): 0 | Plant response rating (0 to 10; 0 is no effect, 10 is complete control), Velvetleaf (velvetleaf; Rate 250 g/ha, Postemergence): 0 | Sugarbeets plant response rating (sugar beet; [1]): 0 | Sugarbeets plant response rating (0 to 10 scale) (sugar beet; [2]): 0 | Sugarbeets plant response rating (sugar beet; [3]): 0 | Sugarbeets plant response rating (sugar beet; [4]): 6 | Sugarbeets plant response rating (sugar beet; [5]): 0 | Sugarbeets plant response rating (sugar beet; [6]): 0 | Plant response rating (0 to 10; 0 is no effect, 10 is complete control), Sugarbeets (sugar beet; Rate 250 g/ha, Postemergence): 0 | Sugarbeets plant response rating (sugar beet; [7]): 7 | Soybean plant response rating (soybean; [1]): 0 | Soybean plant response rating (0 to 10 scale) (soybean; [2]): 0 | Soybean plant response rating (soybean; [3]): 0 | Soybean plant response rating (soybean; [4]): 0 | Soybean plant response rating (soybean; [5]): 1 | Soybean plant response rating (soybean; [6]): 2 | Plant response rating (0 to 10; 0 is no effect, 10 is complete control), Soybean (soybean; Rate 250 g/ha, Postemergence): 2 | Soybean plant response rating (soybean; [7]): 3 | Blackgrass plant response rating (blackgrass; [1]): 0 | Blackgrass plant response rating (0 to 10 scale) (blackgrass; [2]): 0 | Blackgrass plant response rating (blackgrass; [3]): 0 | Blackgrass plant response rating (blackgrass; [4]): 0 | Blackgrass plant response rating (blackgrass; [5]): 0 | Blackgrass plant response rating (blackgrass; [6]): 0 | Plant response rating (0 to 10; 0 is no effect, 10 is complete control), Blackgrass (blackgrass; Rate 250 g/ha, Postemergence): 0 | Blackgrass plant response rating (blackgrass; [7]): 3 | Morningglory plant response rating (morningglory; [1]): 0 | Morningglory plant response rating (0 to 10 scale) (morningglory; [2]): 0 | Morningglory plant response rating (morningglory; [3]): 0 | Morningglory plant response rating (morningglory; [4]): 0 | Morningglory plant response rating (morningglory; [5]): 0 | Morningglory plant response rating (morningglory; [6]): 0 | Plant response rating (0 to 10; 0 is no effect, 10 is complete control), Morningglory (morningglory; Rate 250 g/ha, Postemergence): 0 | Morningglory plant response rating (morningglory; [7]): 0 | Redroot pigweed plant response rating (pigweed; [1]): 0 | Redroot pigweed plant response rating (0 to 10 scale) (pigweed; [2]): 0 | Redroot pigweed plant response rating (pigweed; [3]): 0 | Redroot pigweed plant response rating (pigweed; [4]): 0 | Redroot pigweed plant response rating (pigweed; [5]): 0 | Redroot pigweed plant response rating (pigweed; [6]): 0 | Plant response rating (0 to 10; 0 is no effect, 10 is complete control), Redroot pigweed (pigweed; Rate 250 g/ha, Postemergence): 0 | Redroot pigweed plant response rating (pigweed; [7]): 3
